From the CheMixHub viscosity set
Where “and” joins values, the source holds several entries; their conditions need not be identical. Equal values may be shown once.

Assay: xn = mol fraction of the nth substance listed

Cc1ccc(Cl)cc1 + Nc1cccc(Cl)c1
viscosity [mPa·s], 100 kPa
Details | x2 = 0.0757 | x2 = 0.1649 | x2 = 0.2579 | x2 = 0.3519 | x2 = 0.4697 | x2 = 0.5707 | x2 = 0.6749 | x2 = 0.7826 | x2 = 0.8935
303.15 K | 1.052 | 1.369 | 1.698 | 2.029 | 2.441 | 2.791 | 3.15 | 3.518 | 3.895
308.15 K | 0.968 | 1.253 | 1.549 | 1.847 | 2.217 | 2.531 | 2.853 | 3.184 | 3.521
313.15 K | 0.899 | 1.152 | 1.414 | 1.677 | 2.003 | 2.28 | 2.564 | 2.854 | 3.15
318.15 K | 0.823 | 1.045 | 1.273 | 1.502 | 1.786 | 2.027 | 2.274 | 2.526 | 2.782

C=CCC[n+]1ccn(C)c1.[Br-] + O
viscosity [mPa·s], 101.33 kPa
Details | x1 = 0.0009034 | x1 = 0.00189 | x1 = 0.003585 | x1 = 0.005487 | x1 = 0.007167 | x1 = 0.008848
293.15 K | 1.018 | 1.037 | 1.071 | 1.102 | 1.136 | 1.164
298.15 K | 0.904 | 0.92 | 0.95 | 0.977 | 1.007 | 1.031
303.15 K | 0.809 | 0.824 | 0.85 | 0.874 | 0.901 | 0.922
308.15 K | 0.73 | 0.742 | 0.765 | 0.788 | 0.811 | 0.83
313.15 K | 0.662 | 0.673 | 0.694 | 0.714 | 0.735 | 0.753

CCCCC(CC)COC(=O)c1ccc(C(=O)OCC(CC)CCCC)c(C(=O)OCC(CC)CCCC)c1 (stereo not given) + O
101 kPa
Details | viscosity [mPa·s]
303.14 K, x2 = 0.019 | 151.1
303.15 K, x2 = 0.0111 | 152.7
303.15 K, x2 = 0.0169 | 151.2
303.16 K, x2 = 0.00366 | 153.9
303.16 K, x2 = 0.00372 | 153.9
303.16 K, x2 = 0.00843 | 153.1
303.16 K, x2 = 0.0124 | 152.2
303.16 K, x2 = 0.0155 | 151.6
303.16 K, x2 = 0.0164 | 151.4

CCCCCC(=O)[O-].[NH3+]CCO + O
viscosity [mPa·s], 101 kPa
Details | x1 = 0.0053 | x1 = 0.0114 | x1 = 0.0176 | x2 = 0.9074 | x2 = 0.9364 | x2 = 0.9583 | x2 = 0.9753
293.15 K | 1.44 | 1.692 | 1.82 | 12.85 | 6.672 | 3.858 | 2.546
298.15 K | 1.26 | 1.5 | 1.68 | 10.73 | 5.73 | 3.306 | 2.04
303.15 K | 1.11 | 1.35 | 1.494 | 9.048 | 4.92 | 2.868 | 1.806

CCN1CCCC1=O + O
101 kPa
Details | viscosity [mPa·s]
298 K, x1 = 0.5 | 3.855
323 K, x1 = 0.9 | 1.435

CCn1cc[n+](C)c1.F[B-](F)(F)F + O
Details | viscosity [mPa·s]
293.15 K, 101 kPa, x2 = 0.3047 | 19.25

COCCOCCO + O
viscosity [mPa·s]
Details | 293.15 K | 303.15 K | 308.15 K | 313.15 K | 323.15 K
101.3 kPa, x1 = 0.0164 | 1.374 | 1.061 | – | 0.8527 | 0.6962
101.3 kPa, x1 = 0.0361 | 1.895 | 1.421 | – | 1.108 | 0.8862
101.3 kPa, x1 = 0.0603 | 2.602 | 1.916 | – | 1.445 | 1.131
101.3 kPa, x1 = 0.0909 | 3.571 | 2.525 | – | 1.858 | 1.441
101.3 kPa, x1 = 0.1298 | 4.594 | 3.232 | – | 2.367 | 1.782
101.3 kPa, x1 = 0.1836 | 5.705 | 3.941 | – | 2.848 | 2.114
101.3 kPa, x1 = 0.2589 | 6.431 | 4.445 | – | 3.193 | 2.366
101.3 kPa, x1 = 0.3739 | 6.442 | 4.514 | – | 3.269 | 2.451
101.3 kPa, x1 = 0.4594 | 6.083 | 4.337 | – | 3.174 | 2.412
101.3 kPa, x1 = 0.5736 | 5.544 | 4.024 | – | 2.994 | 2.296
101.3 kPa, x1 = 0.6641 | 5.108 | 3.753 | – | 2.849 | 2.204
101.3 kPa, x1 = 0.7397 | 4.791 | 3.554 | – | 2.724 | 2.122
101.3 kPa, x1 = 0.8287 | 4.441 | 3.341 | – | 2.594 | 2.031
101.3 kPa, x1 = 0.8794 | 4.286 | 3.239 | – | 2.511 | 1.987
101.3 kPa, x1 = 0.9331 | 4.149 | 3.143 | – | 2.455 | 1.955
101.33 kPa, x1 = 0.013 | – | – | 0.914 | – | –
101.33 kPa, x1 = 0.0426 | – | – | 1.445 | – | –
101.33 kPa, x1 = 0.058 | – | – | 1.73 | – | –
101.33 kPa, x1 = 0.0793 | – | – | 2.131 | – | –
101.33 kPa, x1 = 0.0999 | – | – | 2.476 | – | –
101.33 kPa, x1 = 0.1286 | – | – | 2.872 | – | –
101.33 kPa, x1 = 0.1865 | – | – | 3.333 | – | –
101.33 kPa, x1 = 0.3088 | – | – | 3.876 | – | –
101.33 kPa, x1 = 0.4518 | – | – | 3.836 | – | –
101.33 kPa, x1 = 0.5434 | – | – | 3.625 | – | –
101.33 kPa, x1 = 0.6518 | – | – | 3.448 | – | –
101.33 kPa, x1 = 0.7694 | – | – | 3.235 | – | –
101.33 kPa, x1 = 0.9087 | – | – | 2.996 | – | –
101.33 kPa, x2 = 0.0109 | – | – | 2.874 | – | –

Nc1ccc(S(=O)(=O)O)cc1 + O
101 kPa
Details | viscosity [mPa·s]
298.15 K, x1 = 0.0001913 | 0.8949
298.15 K, x1 = 0.0003038 | 0.8969
298.15 K, x1 = 0.0004208 | 0.899
298.15 K, x1 = 0.0005447 | 0.8999
298.15 K, x1 = 0.0006999 | 0.9031
308.15 K, x1 = 0.000111 | 0.7215
308.15 K, x1 = 0.0001913 | 0.7221
308.15 K, x1 = 0.0003038 | 0.724
308.15 K, x1 = 0.0003839 | 0.7252
308.15 K, x1 = 0.0004208 | 0.7255
308.15 K, x1 = 0.0006999 | 0.7281
318.15 K, x1 = 0.0002046 | 0.5999
318.15 K, x1 = 0.0003685 | 0.601
318.15 K, x1 = 0.0005157 | 0.6033
318.15 K, x1 = 0.0006087 | 0.6041
318.15 K, x1 = 0.0006767 | 0.6049
318.15 K, x1 = 0.0007735 | 0.6055

Nc1ccc(S(N)(=O)=O)cc1 + O
viscosity [mPa·s], 101 kPa
Details | x1 = 0.0001938 | x1 = 0.000331 | x1 = 0.0004378 | x1 = 0.0004556 | x1 = 0.000456 | x1 = 0.0005923 | x1 = 0.0007136
298.15 K | 0.8931 | 0.895 | 0.8965 | 0.897 | – | 0.899 | 0.9008
308.15 K | 0.7207 | 0.7224 | 0.7234 | 0.724 | – | 0.7254 | –
318.15 K | 0.5965 | 0.5979 | 0.5992 | – | 0.5993 | 0.6007 | 0.6015

O=C([O-])[C@H](O)[C@@H](O)[C@H](O)[C@H](O)CO.[Na+] + O
viscosity [mPa·s], 100 kPa
Details | 298.15 K | 308.15 K | 318.15 K
x1 = 0.0004 | 0.8985 | 0.7295 | 0.6062
x1 = 0.0007 | 0.9101 | 0.7386 | 0.6138
x1 = 0.001 | 0.9193 | 0.7501 | 0.6218

OCCN(CCO)CCO + O
viscosity
Details | 293.15 K | 298.15 K | 303.15 K | 308.15 K | 313.15 K | 323.15 K
101 kPa, x1 = 0.029 | 2 mPa·s | – | – | – | – | 0.988 mPa·s
101 kPa, x1 = 0.0434 | – | 2.499 mPa·s | 2.194 mPa·s | – | 1.661 mPa·s | –
101 kPa, x1 = 0.0649 | – | 3.802 mPa·s | 3.446 mPa·s | – | 2.406 mPa·s | –
101 kPa, x1 = 0.0966 | – | 6.839 mPa·s | 5.658 mPa·s | – | 4.005 mPa·s | –
101 kPa, x1 = 0.11 | 8.51 mPa·s | – | – | – | – | 3.24 mPa·s
101 kPa, x1 = 0.1312 | – | 11.65 mPa·s | 9.419 mPa·s | – | 6.419 mPa·s | –
101 kPa, x1 = 0.1769 | – | 20.76 mPa·s | 16.89 mPa·s | – | 10.97 mPa·s | –
101 kPa, x1 = 0.27 | 64.6 mPa·s | – | – | – | – | 14.8 mPa·s
101 kPa, x1 = 0.2724 | – | 54.52 mPa·s | 41.37 mPa·s | – | 25.21 mPa·s | –
101 kPa, x1 = 0.3481 | – | 96.45 mPa·s | 73.09 mPa·s | – | 41.11 mPa·s | –
101 kPa, x1 = 0.4784 | – | 187.3 mPa·s | 131.4 mPa·s | – | 70.8 mPa·s | –
101 kPa, x1 = 0.5814 | – | 278.1 mPa·s | 187.2 mPa·s | – | 97.64 mPa·s | –
101 kPa, x1 = 0.7166 | – | 390.4 mPa·s | 269.9 mPa·s | – | 138.2 mPa·s | –
101 kPa, x1 = 0.8347 | – | 472.7 mPa·s | 328.9 mPa·s | – | 166.2 mPa·s | –
101 kPa, x1 = 0.9177 | – | 542.7 mPa·s | 369.7 mPa·s | – | 184.6 mPa·s | –
101 kPa, x1 = 0.9724 | – | 585.3 mPa·s | 396.2 mPa·s | – | 196.3 mPa·s | –
101.3 kPa, x1 = 0.0064 | 1.141 mPa·s | 0.998 mPa·s | 0.872 mPa·s | 0.765 mPa·s | 0.664 mPa·s | 0.555 mPa·s
101.3 kPa, x1 = 0.0134 | 1.33 mPa·s | 1.161 mPa·s | 1.039 mPa·s | 0.914 mPa·s | 0.801 mPa·s | 0.688 mPa·s
101.3 kPa, x1 = 0.0294 | – | 1.789 mPa·s | 1.559 mPa·s and 1.57 mPa·s | 1.369 mPa·s | – | 0.988 mPa·s

OCCOCCOCCOCCOCCO + O
viscosity [mPa·s], 100 kPa
Details | 293.15 K | 298.15 K | 303.15 K | 308.15 K | 313.15 K | 318.15 K | 323.15 K
x2 = 0.023 | 70.88 | 54.12 | 42.28 | 33.63 | 27.22 | 22.34 | 18.57
x2 = 0.081 | 72.83 | 55.72 | 43.21 | 34.21 | 27.55 | 22.56 | 18.68
x2 = 0.144 | 71.38 | 54.33 | 42.28 | 33.53 | 27.01 | 22.11 | 18.34
x2 = 0.166 | 70.74 | 53.66 | 41.76 | 33.1 | 26.67 | 21.83 | 18.08
